{"source": "paper PMC4126848", "about": "(Epilepsia, 2014)", "key": {"[1]": {"test_system": "hippocampal pyramidal neurons isolated from Scn2a^Q54 mice", "type": "cell-based, mouse", "conditions": "1 µM"}, "[2]": {"test_system": "hippocampal pyramidal neurons isolated from Scn2a^Q54 mice", "type": "cell-based, mouse", "conditions": "1 µM; membrane potential clamped to −80 mV"}, "Scn2a^Q54 mice [3]": {"test_system": "Scn2a^Q54 mice", "assay": "Anticonvulsant activity: behavioral seizure frequency in Scn2a^Q54 mice", "type": "in vivo, mouse", "conditions": "for reduction in seizure frequency: Scn2a^Q54 mice"}, "C57BL/6J male mice": {"test_system": "C57BL/6J male mice", "assay": "Maximal electroshock-induced seizures", "type": "in vivo, mouse", "conditions": "oral gavage two hours prior to testing; probit analysis"}, "Scn2a^Q54 mice [4]": {"test_system": "Scn2a^Q54 mice", "assay": "Survival analysis of Scn2a^Q54 mice", "type": "in vivo, mouse", "conditions": "GS967 chow 1.5 mg/kg/d from postnatal day 21; control 20%"}, "Scn2a^Q54 mice [5]": {"test_system": "Scn2a^Q54 mice", "assay": "Cresyl Violet staining for hilar neuron loss in the dentate gyrus", "type": "in vivo, mouse", "conditions": "GS967 1.5 mg/kg/d from P21-P60; female mice"}, "Scn2a^Q54 mice [6]": {"test_system": "Scn2a^Q54 mice", "assay": "Tolerability observations in mice", "type": "in vivo, mouse", "conditions": "phenytoin 30 mg/kg i.p.; GS967 in chow"}, "[7]": {"test_system": "cardiac ion channels and several other molecular targets (more than 600 studied targets)", "conditions": "1 µM; cited from earlier work"}, "[8]": {"assay": "Plasma and brain concentrations and pharmacokinetics in mice", "conditions": "for concentration at 30 min: male, Scn2a^Q54, mouse, intraperitoneal, 40 mg/kg"}, "[9]": {"conditions": "mouse, in vivo"}}, "note": "Values joined by “and” are separate entries in the source; they are usually repeats but may differ in a detail not shown here. Equal entries are not always repeated. Where two headings read alike, the source gives them in different places."}
{"smiles": "FC(F)(F)Oc1ccc(-c2ccc3nnc(C(F)(F)F)n3c2)cc1", "note": "[GS967]", "values": [{"measurement": "persistent current as % of peak current amplitude", "setting": "[1]; control 1.2 ± 0.4%", "value": "0.1 ± 0.1", "unit": "%"}, {"measurement": "peak current density", "setting": "[1]; not significantly different from control", "value": "172.3 ± 46.2", "unit": "pA/pF"}, {"measurement": "reduction of spontaneous action potential firing frequency", "setting": "[2]", "value": "98.8 ± 0.1", "unit": "%"}, {"measurement": "reduction in seizure frequency", "setting": "Scn2a^Q54 mice [3]; GS967 0.375 mg/kg/d orally in chow", "value": 50, "unit": "%"}, {"measurement": "reduction in seizure frequency", "setting": "Scn2a^Q54 mice [3]; GS967 1.5 mg/kg/d orally in chow, two days of treatment", "value": "greater than 90%"}, {"measurement": "% Change in Seizure Frequency", "setting": "Scn2a^Q54 mice [3]; GS967 1.5 mg/kg/day orally in chow, male Scn2a^Q54 mice", "value": "−92 ± 4", "unit": "%"}, {"measurement": "ED50 for protection against MES-induced tonic hindlimb extension", "setting": "C57BL/6J male mice", "value": 0.1, "unit": "mg/kg"}, {"measurement": "mice alive at 12 weeks", "setting": "Scn2a^Q54 mice [4]", "value": 90, "unit": "%"}, {"measurement": "hilar neuron loss (Cresyl Violet, qualitative)", "setting": "Scn2a^Q54 mice [5]", "value": "no overt hilar neuron loss"}, {"measurement": "sedation", "setting": "Scn2a^Q54 mice [6]", "value": "no sedation was observed"}, {"measurement": "cross reactivity with cardiac ion channels and other molecular targets", "setting": "[7]", "value": "no cross reactivity"}, {"measurement": "[Plasma]", "setting": "[8]; GS967 1.5 mg/kg/day orally in chow, immediately after post-treatment period", "value": "0.6 ± 0.1", "unit": "µM"}, {"measurement": "brain penetration", "setting": "[8]; mice", "value": "effectively cross the blood-brain barrier"}, {"measurement": "rate of elimination", "setting": "[8]; mouse, in vivo", "value": "slower rate of elimination than ranolazine"}]}
{"smiles": "O=C1NC(=O)C(c2ccccc2)(c2ccccc2)N1", "note": "[Phenytoin, reference compound]", "values": [{"measurement": "reduction of spontaneous action potential firing frequency", "setting": "[2]", "value": "36.7 ± 10.1", "unit": "%"}, {"measurement": "sedation", "setting": "Scn2a^Q54 mice [6]", "value": "exhibited sedation characterized by lack of ambulation"}]}
{"smiles": "COc1ccccc1OCC(O)CN1CCN(CC(=O)Nc2c(C)cccc2C)CC1", "note": "(stereo not drawn) [Ranolazine, reference compound]", "values": [{"measurement": "reduction in seizure frequency", "setting": "Scn2a^Q54 mice [3]; ranolazine 40 mg/kg i.p.", "value": "~ 50% and 48%"}, {"measurement": "brain penetration", "setting": "[9]", "value": "low brain penetration"}, {"measurement": "concentration at 30 min", "setting": "[8]; plasma", "value": "19.3 ± 0.8", "unit": "µM"}, {"measurement": "concentration at 30 min", "setting": "[8]; whole brain", "value": "4.9 ± 0.1", "unit": "µM"}, {"measurement": "half-life", "setting": "[8]; mouse, plasma", "value": "~15", "unit": "min"}]}
